The text below walks through data of the NIST ThermoML archive (doi:10.1021/je300202z).

For this series the following is noted: Liquid, Ebulliometric method (Recirculating still).

Where “and” joins values, the source holds several entries; their conditions need not be identical. Equal values may be shown once. Numbers after ± are expanded uncertainties.

With `CCOCCO` [2-ethoxyethan-1-ol], the “vapor or sublimation pressure” value is reported as 53.33 ± 2.4 kPa (388.6 K); 69.33 ± 2.5 kPa (396.1 K); 80 ± 2.8 kPa (400.4 K); 85.33 ± 3 kPa (402.3 K); 90.66 ± 3.2 kPa (404.2 K); 100.93 ± 3.3 kPa (407.5 K). Further, the “vapor or sublimation pressure” value (407.8 K) is 101.33 ± 3.1 kPa and 100.93 ± 5.6 kPa.

`CCOCCOC(C)=O` [2-ethoxyethyl ethanoate]: the “vapor or sublimation pressure” value is, setting by setting: (408.2 K) 53.33 ± 2.1 kPa; (416.7 K) 69.33 ± 2.2 kPa; (421.5 K) 80 ± 2.5 kPa; (423.7 K) 85.33 ± 2.7 kPa; (425.8 K) 90.66 ± 3.3 kPa; (428.8 K) 101.33 ± 3.7 kPa and 100.93 ± 5.5 kPa. The “vapor or sublimation pressure” value (429.7 K) was 100.93 ± 2.8 kPa.
